Experiment [1] has as its system vancomycin-resistant Enterococcus spp. (VRE). Nature of the experiment: Determination of MIC values (BHI broth, 96 well microtiter plate). The class given is cell-based. The following applies: Enterococcus, VRE, 16 h, read-out: MIC VREF. Here is the method: (§1) Stock solutions of compounds are prepared with a concentration of 10 mg/mL. These solutions are then diluted 1:4 to give a concentration of 2.5 mg/mL. The compounds are then serially diluted 1:2 for 6 iterations. The concentrations made for each compound are 2.5, 1.25, 0.625, 0.3125, 0.156, 0.078, and 0.039 mg/mL. A control sample (no compound) is run along with each compound tested. All dilutions are made in DMSO.
(§2) All wells of a 96 well microtiter plate are filled with 100 μL of BHI (Brain-Heart Infusion) broth. Columns on the plate are labeled 1-12, and rows are labeled A-H. Each column of wells is used to test one series of diluted compounds. Into each well of 100 μL of BHI broth, 1 μL of diluted compound is placed for a 1:100 dilution. This makes the final concentration of each drug series 25, 12.5, 6.25, 3.125, 1.56, 0.78, 0.39, and 0 μg/mL.
(§3) Test Organism: A sterile 15 mL screw cap tube is filled wth 3 mL of BHI broth. Next, 2-3 colonies of test organism are inoculated into the tube. The tube is then incubated at 37° C. in a CO2 (approx. 7%) atmosphere jar. The organisms are allowed to grow to the density of a 0.5 McFarland standard (10^8 cells/mL). The organism is then inoculated into each well of the microtiter plate containing the diluted compounds to be tested for MIC. The inoculum is 1 μL in volume and represents 10^5 to 10^6 cells/mL.
(§4) After inoculation the plates are covered and incubated at 37° C. and approx. 7-10% CO2 atmosphere overnight (about 16 hours). The plates are then observed for growth, the well with the lowest concentration of drug and no observable growth represents the well determining the MIC.

Experiment [2] concerns methicillin-resistant Staphylococcus aureus (MRSA). Described as above. The class given is cell-based. The following applies: Staphylococcus aureus, MRSA, 16 h, read-out: MIC MRSA. On the procedure: as §1, §2, §3, §4
The mark [3] stands for this setting: BHI broth, 37° C., overnight (about 16 hours).

Here are results for 48 compounds from patent publication US6376670B1, “Quinoline-indole antimicrobial agents, uses and compositions related thereto” (Sepracor Inc., priority 1997, dated 2002).

For orientation: MIC means the least concentration at which growth counts as inhibited.

Structures are written as SMILES. Like-named read-outs stand apart in the source and are kept apart here.

Turning to `Cn1cc(-c2cc(C(=O)NCc3ccc(CN)cc3)c3ccccc3n2)c2ccccc21` [Example 12], the MIC in experiment [1] (setting [3]) and in experiment [2] (setting [3]) was greater than 25 µg/mL throughout.
Turning to `NCc1ccc(CNC(=O)c2cc3ccccc3c(-c3c[nH]c4ccc(Br)cc34)n2)cc1` [Example 13], the figures for the MIC in experiment [1] (setting [3]) and in experiment [2] (setting [3]) were less than 25 µg/mL and less than 7 µg/mL, respectively.
Consider `O=C(c1cc(-c2c[nH]c3ccc(Br)cc23)nc2ccccc12)N1CCCNCC1` [Example 14], for which the minimal inhibitory concentration (MIC) in experiment [1] (setting [3]) and in experiment [2] (setting [3]) was less than 25 µg/mL each time.
For `NCc1ccc(CNC(=O)c2cc(-c3c[nH]c4ccc(F)cc34)nc3ccccc23)cc1` [Example 15], the results for the MIC in experiment [1] (setting [3]) and in experiment [2] (setting [3]) were greater than 25 µg/mL and less than 25 µg/mL, respectively.
On to `NCc1ccc(CNC(=O)c2cc(-c3c[nH]c4ccc(Cl)cc34)nc3ccccc23)cc1` [Example 16], for which the MIC in experiment [1] (setting [3]) was less than 25 µg/mL; in experiment [2] (setting [3]) it was less than 7 µg/mL.
Consider `Cc1ccc2[nH]cc(-c3cc(C(=O)NCc4ccc(CN)cc4)c4ccccc4n3)c2c1` [Example 17], for which the results for the minimum inhibitory concentration (MIC) in experiment [1] (setting [3]) and in experiment [2] (setting [3]) were greater than 25 µg/mL and less than 25 µg/mL, respectively.
Regarding `COc1ccc2[nH]cc(-c3cc(C(=O)NCc4ccc(CN)cc4)c4ccccc4n3)c2c1` [Example 18], the MIC in experiment [1] (setting [3]) and in experiment [2] (setting [3]) was greater than 25 µg/mL in each case.
Regarding `NCc1ccc(CNC(=O)c2cc(-c3c[nH]c4ccc(OCc5ccccc5)cc34)nc3ccccc23)cc1` [Example 19], the MIC in experiment [1] (setting [3]) and in experiment [2] (setting [3]) was less than 25 µg/mL each time.
Turning to `NCc1ccc(CNC(=O)c2cc(-c3c[nH]c4cc(Cl)ccc34)nc3ccccc23)cc1` [Example 20], the MIC in experiment [1] (setting [3]) and in experiment [2] (setting [3]) was less than 25 µg/mL each time.
For the compound `NCc1ccc(CNC(=O)c2cc(-c3c[nH]c4cccc(Cl)c34)nc3ccccc23)cc1` [Example 21], the MIC in experiment [1] (setting [3]) and in experiment [2] (setting [3]) was greater than 25 µg/mL in each case.
In the case of `NCc1ccc(CNC(=O)c2cc(-c3c(-c4ccccc4)[nH]c4ccccc34)nc3ccccc23)cc1` [Example 22], the MIC in experiment [1] (setting [3]) and in experiment [2] (setting [3]) was greater than 25 µg/mL throughout.
Take `Cc1[nH]c2ccccc2c1-c1cc(C(=O)NCc2ccc(CN)cc2)c2ccccc2n1` [Example 23]: the MIC in experiment [1] (setting [3]) and in experiment [2] (setting [3]) was greater than 25 µg/mL in each case.
Turning to `COC(=O)c1cc(-c2c[nH]c3ccc(Br)cc23)nc2ccccc12` [Example 24], the MIC in experiment [1] (setting [3]) and in experiment [2] (setting [3]) was greater than 25 µg/mL in each case.
Take `O=C(c1cc(C23CC4CC(CC(C4)C2)C3)nc2ccccc12)N1CCNCC1` [Example 25]: the minimum inhibitory concentration (MIC) in experiment [1] (setting [3]) and in experiment [2] (setting [3]) was greater than 25 µg/mL each time.
Take `NCc1ccc(CNC(=O)c2cc(C34CC5CC(CC(C5)C3)C4)nc3ccccc23)cc1` [Example 26]: the MIC in experiment [1] (setting [3]) and in experiment [2] (setting [3]) was less than 25 µg/mL in each case.
With `O=C(O)c1cc(-c2c[nH]c3ccc(Br)cc23)nc2ccccc12` [Example 27], the MIC in experiment [1] (setting [3]) and in experiment [2] (setting [3]) was greater than 25 µg/mL throughout.
As to `Brc1ccc2[nH]cc(-c3cc(CN4CCNCC4)c4ccccc4n3)c2c1` [Example 28], the MIC in experiment [1] (setting [3]) and in experiment [2] (setting [3]) was less than 25 µg/mL each time.
Turning to `COC(=O)C(=O)N1CCN(C(=O)c2cc(-c3c[nH]c4ccc(Br)cc34)nc3ccccc23)CC1` [Example 29], the MIC in experiment [1] (setting [3]) and in experiment [2] (setting [3]) was less than 25 µg/mL throughout.
`CN1CCN(C(=O)c2cc(-c3c[nH]c4ccc(Br)cc34)nc3ccccc23)CC1` [Example 30]: the values for the minimal inhibitory concentration (MIC) in experiment [1] (setting [3]) and in experiment [2] (setting [3]) were greater than 25 µg/mL and less than 25 µg/mL, respectively.
On to `CNC1CCN(C(=O)c2cc(-c3c[nH]c4ccc(Br)cc34)nc3ccccc23)CC1` [Example 31], for which the minimal inhibitory concentration (MIC) in experiment [1] (setting [3]) and in experiment [2] (setting [3]) was less than 25 µg/mL each time.
As for `O=C(c1cc(-c2c[nH]c3ccc(Br)cc23)nc2ccccc12)N1CCN(c2ccc(F)cc2)CC1` [Example 32], the MIC in experiment [1] (setting [3]) and in experiment [2] (setting [3]) was less than 25 µg/mL throughout.
`CNCCC(C)N(C)C(=O)c1cc(-c2c[nH]c3ccc(Br)cc23)nc2ccccc12` (centres unmarked) [Example 33]: the minimum inhibitory concentration (MIC) in experiment [1] (setting [3]) and in experiment [2] (setting [3]) was less than 7 µg/mL in each case.
With `O=C(NC1CCOC1=O)c1cc(-c2c[nH]c3ccc(Br)cc23)nc2ccccc12` (centres unmarked) [Example 34], the minimum inhibitory concentration (MIC) in experiment [1] (setting [3]) and in experiment [2] (setting [3]) was less than 25 µg/mL in each case.
For `O=C(NC1CN2CCC1CC2)c1cc(-c2c[nH]c3ccc(Br)cc23)nc2ccccc12` (centres unmarked) [Example 35], the results for the minimal inhibitory concentration (MIC) in experiment [1] and in experiment [2] were greater than 25 µg/mL and less than 25 µg/mL, respectively.
Turning to `O=C(c1cc(-c2c[nH]c3ccc(Br)cc23)nc2ccccc12)N1CCC(O)(c2ccccc2)CC1` [Example 36], the MIC in experiment [1] (setting [3]) and in experiment [2] (setting [3]) was less than 25 µg/mL throughout.
For `O=C(Nc1ccc(O)cc1)c1cc(-c2c[nH]c3ccc(Br)cc23)nc2ccccc12` [Example 37], the minimum inhibitory concentration (MIC) in experiment [1] (setting [3]) was greater than 25 µg/mL; in experiment [2] (setting [3]), less than 7 µg/mL.
On the same counts, the results for `O=C(NCc1nc2ccccc2[nH]1)c1cc(-c2c[nH]c3ccc(Br)cc23)nc2ccccc12` [Example 38] are greater than 25 µg/mL and less than 7 µg/mL.
On the same counts, the results for `NCc1ccc(CNCc2cc(-c3c[nH]c4ccc(Br)cc34)nc3ccccc23)cc1` [Example 39] are less than 7 µg/mL and less than 7 µg/mL.
For the compound `O=C(NCc1ccc(CNC(=O)c2cc(-c3c[nH]c4ccc(Br)cc34)nc3ccccc23)cc1)Nc1ccccc1` [Example 40], the minimum inhibitory concentration (MIC) in experiment [1] (setting [3]) and in experiment [2] (setting [3]) was greater than 25 µg/mL in each case.
Regarding `NCCCCCNC(=O)c1cc(-c2c[nH]c3ccc(Br)cc23)nc2ccccc12` [Example 41], the minimum inhibitory concentration (MIC) in experiment [1] (setting [3]) and in experiment [2] (setting [3]) was less than 25 µg/mL each time.
`NCC1CCC(CNC(=O)c2cc(-c3c[nH]c4ccc(Br)cc34)nc3ccccc23)CC1` (centres unmarked) [Example 42]: the MIC was less than 25 µg/mL in experiment [1] (setting [3]) and greater than 25 µg/mL in experiment [2] (setting [3]).
On the same counts, the results for `NC1CCN(C(=O)c2cc(-c3c[nH]c4ccc(Br)cc34)nc3ccccc23)C1` (centres unmarked) [Example 43] are less than 25 µg/mL and less than 25 µg/mL.
On the same counts, the results for `O=C(NCCN1CCCC1)c1cc(-c2c[nH]c3ccc(Br)cc23)nc2ccccc12` [Example 44] are less than 25 µg/mL and less than 25 µg/mL.
On the same counts, the results for `O=C(c1cc(-c2c[nH]c3ccc(Br)cc23)nc2ccccc12)N1CCN(Cc2ccccc2)CC1` [Example 45] are greater than 25 µg/mL and greater than 25 µg/mL.
Consider `NC(=O)C1CCCN(C(=O)c2cc(-c3c[nH]c4ccc(Br)cc34)nc3ccccc23)C1` (centres unmarked) [Example 46], for which the MIC in experiment [1] (setting [3]) and in experiment [2] (setting [3]) was less than 25 µg/mL in each case.
For the compound `O=C(c1cc(-c2c[nH]c3ccc(Br)cc23)nc2ccccc12)N1CCC(N2CCCCC2)CC1` [Example 47], the minimal inhibitory concentration (MIC) in experiment [1] (setting [3]) and in experiment [2] (setting [3]) was less than 25 µg/mL each time.
`O=C(NCCCCC1CCCNC1)c1cc(-c2c[nH]c3ccc(Br)cc23)nc2ccccc12` (centres unmarked) [Example 49]: the MIC in experiment [1] (setting [3]) and in experiment [2] (setting [3]) was less than 7 µg/mL each time.
Take `CNCc1ccc(CNCc2cc(-c3c[nH]c4ccc(Br)cc34)nc3ccccc23)cc1` [Example 50]: the results for the MIC in experiment [1] (setting [3]) and in experiment [2] (setting [3]) were less than 25 µg/mL and less than 7 µg/mL, respectively.
For the compound `NCCN(CCNC(=O)c1cccc2nc(-c3c[nH]c4ccc(Br)cc34)ccc12)CCNC(=O)c1cc(-c2c[nH]c3ccc(Br)cc23)nc2ccccc12` [Example 51], the MIC in experiment [1] (setting [3]) and in experiment [2] (setting [3]) was less than 7 µg/mL each time.
With `NCc1ccc(CNC(=O)c2cc(-c3csc4ccccc34)nc3ccccc23)cc1` [Example 52], the MIC in experiment [1] (setting [3]) and in experiment [2] (setting [3]) was less than 25 µg/mL in each case.
For `O=C(c1cc(-c2c[nH]c3ccc(Br)cc23)nc2ccc(I)cc12)N1CCNCC1` [Example 54], the minimum inhibitory concentration (MIC) in experiment [1] (setting [3]) and in experiment [2] (setting [3]) was less than 7 µg/mL each time.
Turning to `NCc1ccc(CNC(=O)c2cc(-c3c[nH]c4ccc(Br)cc34)nc3ccc(OC(F)(F)F)cc23)cc1` [Example 55], the minimal inhibitory concentration (MIC) in experiment [1] (setting [3]) and in experiment [2] (setting [3]) was less than 7 µg/mL each time.
Take `Cc1cc(Cl)cc2c(C(=O)NCc3ccc(CN)cc3)cc(-c3c[nH]c4ccc(Br)cc34)nc12` [Example 56]: the minimal inhibitory concentration (MIC) in experiment [1] (setting [3]) and in experiment [2] (setting [3]) was less than 25 µg/mL throughout.
With `N=C(N)NCCCC(NC(=O)c1cc(-c2c[nH]c3ccc(Br)cc23)nc2ccccc12)C(N)=O` (centres unmarked) [Example 57], the minimal inhibitory concentration (MIC) in experiment [1] (setting [3]) and in experiment [2] (setting [3]) was less than 25 µg/mL each time.
Take `NCCCCCCNC(=O)c1cc(-c2c[nH]c3ccc(Br)cc23)nc2ccccc12` [Example 59]: the minimal inhibitory concentration (MIC) in experiment [1] (setting [3]) and in experiment [2] (setting [3]) was less than 7 µg/mL each time.
Consider `CNC1CCN(C(=O)c2cc(-c3c[nH]c4ccc(Br)cc34)nc3ccccc23)C1` (centres unmarked) [Example 60], for which the MIC in experiment [1] (setting [3]) and in experiment [2] (setting [3]) was less than 25 µg/mL throughout.
On to `O=C(CCC(=O)N1CCN(C(=O)c2cc(-c3c[nH]c4ccc(Br)cc34)nc3ccccc23)CC1)N1CCN(C(=O)c2cc(-c3c[nH]c4ccc(Br)cc34)nc3ccccc23)CC1` [Example 62], for which the MIC in experiment [1] (setting [3]) and in experiment [2] (setting [3]) was greater than 25 µg/mL throughout.
With `NCCNC(=O)c1cc(-c2c[nH]c3ccc(Br)cc23)nc2cc(Cl)c(C#CCN3CCCCC3)cc12` [Example 488], in experiment [2] (BHI broth, 37° C., about 16 hours), the MIC is less than 7 µg/mL.
